# Key:
# [1] = test system: HRECs; assay: VEGF-induced tube formation assay in HRECs; format: cell-based, human; conditions: idelalisib 5 μM
# Method: A tube formation assay was performed as previously described^63. A collagen gel mixture was added to a 96-well plate (70 μl/well), which was then incubated for about 60 minutes at 37° C. to let the collagen gel polymerize. After polymerization, 4.0×10^4 HRECs were seeded in each well with their cultured medium maintained at a 37° C. incubator. This day was considered day 1. On day 2, the medium was removed and 150 μl of the gel mixture was added to each well supplemented with VEGF, or VEGF plus idelalisib (5 μM). On days 3, three different fields per well were randomly chosen and photographed using the EVOS FL Auto microscope. The results in FIG. 10B are representative of three independent experiments^61, 64, 65. Each bar graph indicates mean±standard deviation of three independent experiments. “*” denotes significant difference between the two compared groups. P<0.05 using an unpaired t-test.
# [2] = test system: HRECs; assay: VEGF-induced wound healing (migration) assay in HRECs; format: cell-based, human; conditions: VEGF 20 ng/ml, idelalisib 5 μM, 18 hours
# Method: A wound healing assay was performed as previously described^62 with minor modifications. Once cells reached 90% confluence in 48-well plates, they were starved for growth factors for 7 hours. A wound was created by scraping the cell monolayer with a sterile pipette tip (200 μl). The cells were washed twice to remove detached cells and then treated with VEGF (20 ng/ml) or VEGF plus idelalisib (5 μM). The wound was photographed at 18 hours post wounding with an EVOS FL Auto microscope (Thermo Scientific) as shown in 8B from three independent experiments^61.
smiles,measurement,setting,value
CC[C@H](Nc1ncnc2[nH]cnc12)c1nc2cccc(F)c2c(=O)n1-c1ccccc1 [idelalisib],effect on VEGF-stimulated tube formation of HRECs,[1],completely blocked
same,effect on VEGF-stimulated migration of HRECs,[2],completely blocked
